Residue numbers refer to the chain shown, from its start.

The record followed here is article PMC2151509 (The Journal of General Physiology, 2006).

For assay [1], the target named is T1, rat olfactory CNGA2 channel (homomeric) (Rattus norvegicus, UniProt Q00195, E342K).
T1 sequence (Q00195 1-664 E342K): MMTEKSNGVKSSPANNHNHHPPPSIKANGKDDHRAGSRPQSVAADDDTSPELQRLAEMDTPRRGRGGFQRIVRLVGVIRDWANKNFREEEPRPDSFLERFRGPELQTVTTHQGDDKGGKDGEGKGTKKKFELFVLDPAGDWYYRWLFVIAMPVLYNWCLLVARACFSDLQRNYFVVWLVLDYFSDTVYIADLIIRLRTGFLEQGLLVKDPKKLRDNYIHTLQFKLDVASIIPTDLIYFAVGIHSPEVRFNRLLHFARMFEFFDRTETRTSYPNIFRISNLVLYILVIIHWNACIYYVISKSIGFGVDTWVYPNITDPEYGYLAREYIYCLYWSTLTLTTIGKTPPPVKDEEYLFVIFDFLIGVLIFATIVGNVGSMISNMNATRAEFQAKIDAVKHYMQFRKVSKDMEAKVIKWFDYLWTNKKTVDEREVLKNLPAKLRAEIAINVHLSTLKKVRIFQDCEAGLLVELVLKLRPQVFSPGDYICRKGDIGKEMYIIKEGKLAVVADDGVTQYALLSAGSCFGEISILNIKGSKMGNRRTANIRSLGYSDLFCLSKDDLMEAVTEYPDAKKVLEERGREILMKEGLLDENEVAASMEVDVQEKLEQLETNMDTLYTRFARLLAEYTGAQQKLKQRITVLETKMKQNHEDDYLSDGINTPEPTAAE
In words: inside-out patch clamp, cGMP-activated current, Hill fit. The class given is cell-based. A general note: In patch-clamp work, channel activity is measured electrically.

For assay [2], the target named is T2, rat olfactory CNGA2 channel (homomeric) (Rattus norvegicus, UniProt Q00195).
T2 sequence (Q00195 1-664): T1 sequence (Q00195 1-664 E342K) with K342E
In words: inside-out patch clamp, cGMP-activated current. In kind it is biochemical. Conditions: agonist; 5 mM cGMP; 145 mM NaCl, pH 7.4, 21 °C.

With `Nc1nc2c(ncn2[C@@H]2O[C@@H]3COP(=O)(O)O[C@H]3[C@H]2O)c(=O)[nH]1` [cGMP], in assay [1], a half-maximal effect (EC50) was put at 8.6 ± 1.2 µM. Besides, in assay [2], the “inside-out patch clamp, cGMP-activated current” value is given as “Macroscopic cGMP-activated currents in different NaCl dilutions in one inside-out patch with WT CNG channels”.
